System: PD-L1 gene expression
Assay: PD-L1 gene expression in BMMCs from MM patient #2188 co-cultured with HS-5 stromal cells or THP-1 monocytes
Type: cell-based, human
Settings: RUX 1 μM, 48 hours
Experimental: We also examined the effects of RUX on PD-L1 gene expression in MM tumor cells co-cultured with stromal cells or monocytes in vitro. BMMCs from MM patient #2188 were co-cultured with stromal cells from the HS-5 cell line (ATCC, CRL-11882) with or without RUX (1 μM) treatment. After 48 hours of co-culture, PD-L1 gene expression was increased in both BMMCs (FIG. 5A) and stromal cells (FIG. 5B) from the co-culture of both cell types compared with its expression in those cell types cultured alone. The increased PD-L1 levels were reduced in the presence of RUX (1 μM) in both cell populations after 48 hours of culture. Similarly, PD-L1 gene expression was increased in both BMMCs and monocytes (THP-1 cells) after co-culture compared with cells cultured alone (FIG. 5C and FIG. 5D) and reduced following exposure to RUX (1 μM).
FIG. 5A depicts relative PD-L1 gene expression in BMMCs from patient #2188 cultured with stromal cells (ATCC, HS-5) with RUX (1 μM) or without for 48 hours. BM, bone marrow cells alone; BM+1 μM, BMMCs treated with 1 μM RUX; BM/BM+S−0 μM, BMMCs with stromal cells without RUX; BM/BM+S+1 μM, BMMCs with stromal cells and 1 μM RUX.
FIG. 5B depicts relative PD-L1 gene expression in stromal cells (ATCC, HS-5) co-cultured with BMMCs from patient #2188 on Transwell inserts with (1 μM) or without RUX for 48 hours. Stroma cells (S) alone; stromal cells+1 μM, stromal cells treated with RUX (1 μM); S/BM+S−0 μM, BMMCs with stromal cells without RUX; S/BM+S−1 μM, BMMCs with stromal cells with RUX at 1 μM.
FIG. 5C depicts relative PD-L1 gene expression in BMMCs from patient #2188 co-cultured with THP-1 monocytes treated with (1 μM) or without RUX for 48 hours. BM, BMMCs alone; BM+1 μM, BMMCs treated with 1 μM RUX; BM/BM+T−0 μM, BMMCs with THP-1 monocytes without RUX; BM/BM+T+1 μM, BMMCs with THP-1 monocytes treated with RUX 1 μM.
FIG. 5D depicts relative PD-L1 gene expression in THP-1 monocytes co-cultured with BMMCs from patient #2188 on Transwell inserts with (1 μM) or without RUX for 48 hours. THP-1 only, THP-1 cells alone; THP-1+1 μM, THP-1 cells treated with 1 μM RUX; T/BM+T−0 μM, MM BMMCs with THP-1 cells without RUX; T/BM+T−1 μM, BMMCs with THP-1 monocytes with RUX (1 μM).

N#CC[C@H](C1CCCC1)n1cc(-c2ncnc3[nH]ccc23)cn1 [RUX, ruxolitinib]
reduced: PD-L1 gene expression in stromal cells co-cultured with BMMCs (HS-5 with patient #2188 BMMCs) | PD-L1 gene expression in monocytes (THP-1 cells) co-cultured with BMMCs (THP-1 with patient #2188 BMMCs) | PD-L1 gene expression in BMMCs co-cultured with stromal cells (patient #2188 BMMCs with HS-5) | PD-L1 gene expression in BMMCs co-cultured with monocytes (patient #2188 BMMCs with THP-1)

From patent US20220000872A1, “METHOD OF ENHANCING IMMUNE-BASED THERAPY” (OncoTracker, Inc., priority 2018, published 2022)
